From patent US7071220B2, “N-substituted benzothiophenesulfonamide derivatives” (Toa Eiyo Ltd., priority 2000, dated 2006) come the findings set out here.

Where a chain is given by its changes, count along the chain named. Where two headings read alike, the source gives them in different places.

One data set has as its target T1, Chymotrypsin (Bos taurus, UniProt P00766).
T1 construct: Chymotrypsin Type I-S derived from bovine pancreas; purchased SIGMA Type I-S; host or cells: bovine pancreas
Put plainly: Measurement of chymotrypsin inhibitory activity (Suc-Ala-Ala-Pro-Phe-pNA). The note with it: Chymotrypsin Type I-S from bovine pancreas; 30 minutes at 37° C. In kind it is biochemical. As to the method: (§1) Measurement of Cathepsin G Inhibitory Activity and Chymotrypsin Inhibitory Activity
(§2) Each activity of cathepsin G or chymotrypsin was measured by determining the amount of free p-nitroaniline quantitatively using a synthetic substrate that is colorless and yields colored product upon hydrolysis, by means of a spectrophotometer. Chymotrypsin Type I-S derived from bovine pancreas was purchased from SIGMA. As cathepsin G, the product of Elastin Products Company, Inc. derived from human purulent sputum was used. Suc-Ala-Ala-Pro-Phe-pNA (manufactured by SIGMA) was used as the synthetic substrate. An inhibitory effect of a compound on each enzyme was determined by the following method.
(§3) Each test compound (5 μmol) was weighed in a test tube and dissolved into 2 mL of DMSO. […] Then, 200 μL of 1 mmol/L substrate solution was added to initiate en enzymatic reaction under a temperature of 37° C.
(§4) Based on each inhibitory ratio, IC50 value was calculated.

The next data set deals with T2, Cathepsin G (Homo sapiens, UniProt P08311).
T2 construct: the product of Elastin Products Company, Inc. derived from human purulent sputum was used; purchased Elastin Products Company, Inc; host or cells: human purulent sputum
T2 sequence (P08311 21-244): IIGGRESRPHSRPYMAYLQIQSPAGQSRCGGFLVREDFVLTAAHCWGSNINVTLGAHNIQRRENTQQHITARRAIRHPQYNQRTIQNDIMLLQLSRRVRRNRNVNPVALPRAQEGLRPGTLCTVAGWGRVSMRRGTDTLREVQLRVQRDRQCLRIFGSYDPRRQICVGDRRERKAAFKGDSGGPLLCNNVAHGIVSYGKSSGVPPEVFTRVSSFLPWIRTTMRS
Put plainly: Measurement of cathepsin G inhibitory activity (Suc-Ala-Ala-Pro-Phe-pNA). The note with it: cathepsin G from human purulent sputum; 60 minutes at 37° C. The data set is classed as biochemical. As to the method: as §1, §2, §3, §4

Data set [1] deals with rat cecum-scraped adhesion model. Put plainly: Investigation in rat cecum-scraped adhesion model. In kind it is in vivo. Particulars: 2 mL PBS solution 10^−5 mol/L intraperitoneally; 1 week after operation; control 63.6%. As to the method: Investigation in Rat Cecum-scraped Adhesion Model
Six-week-old SD rats were subjected to midline incision at lower abdominal region under pentobarbital anesthetization (70 mg/kg, intramuscular injection), and the cecum was taken out of the incised part. Two parts of serous membrane of the cecum (about 2 cm^2 each) were rubbed with a cotton swab a hundred times until petechial hemorrhage occurs, followed by dropwise addition of 100 μL of ethanol. The cecum was again set in abdominal cavity, and then, 2 mL of a phosphate buffered saline (hereinafter, abbreviated as PBS, pH 7.4) solution of a test compound (Compound 24 or 70) was added dropwise intraperitoneally, and then the incised part was sutured. The concentration of each test compound solution was 10^−5 mol/L in a control group, PBS alone was added dropwise, followed by a similar treatment. Each group had 11 or 12 rats. After 1 week from the operation, the animals were slaughtered, the abdominal part was re-incised and an adhesion state of the cecum was evaluated according to adhesion scores using the adhesion intensity and adhesion area as indexes. The score values were determined according to the following 5-grade scores. In this connection, adhered region (%) was determined as percentage of total area of the adhered parts relative to the area of the rubbed regions. […]

The next data set has as its target T3, Simian chymase (Macaca mulatta, UniProt F6SAJ2).
T3 sequence (F6SAJ2 22-247 limits assumed): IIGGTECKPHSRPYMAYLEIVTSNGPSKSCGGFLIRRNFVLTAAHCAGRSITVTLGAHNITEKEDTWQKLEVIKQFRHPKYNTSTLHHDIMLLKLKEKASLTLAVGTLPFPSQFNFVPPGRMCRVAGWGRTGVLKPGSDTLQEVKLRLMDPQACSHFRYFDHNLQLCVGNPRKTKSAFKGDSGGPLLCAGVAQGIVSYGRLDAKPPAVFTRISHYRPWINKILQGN
Kind of data set: Measurement of inhibitory activity of simian chymase (Ang I substrate, His-Leu/OPT fluorescence). The data set is classed as biochemical, rhesus monkey.

The target in a further data set is T4, Human chymase (Homo sapiens, UniProt P23946).
T4 sequence (P23946 22-247): T3 sequence (F6SAJ2 22-247 limits assumed) with S29F, K63E, Y159D, L201S, K221Q, G225A
Kind of data set: Measurement of inhibitory activity of human chymase (Ang I substrate, His-Leu/OPT fluorescence).

A further data set is described as follows: Stability in rat plasma. The data set is classed as in vitro ADME. The note with it: 10 μg/mL, 37° C., 60 minutes, HPLC. As to the method: Stability of the compounds of the invention in rat plasma was investigated.
Male SD rats (7-week-old) were anesthetized with ether under over-night fasting conditions and, after an abdominal part was incised, blood was collected from aorta abdominalis using a heparinized disposable plastic syringe. The blood was centrifuged under cooling to collect a supernatant plasma. The collected plasma was stored under freezing at −30° C. and was melted before use. After a test compound was dissolved in DMSO, the solution was added to 200 μL of the plasma so as to be 10 μg/mL, followed by incubation at 37° C. After 60 minutes, the mixture was acidified by adding 200 μL of 0.1 mol/L hydrochloric acid, and then extracted twice with 2 mL of ethyl acetate. The resulting organic layer was evaporated to dryness under a nitrogen gas flow and the residue was dissolved into 200 μL of acetonitrile to prepare a sample solution. On the other hand, the test compound was dissolved into 1% acetonitrile solution of DMSO so as to be 10 μg/mL as a control solution. The sample solution and control solution was investigated by high performance liquid chromatography (hereinafter, abbreviated as HPLC). Residual ratio (%) was determined as percentage by dividing the peak area of the sample solution by the peak area of the control solution.
Column: Waters Nova Pack C18 (inner diameter: 3.9 mm, length: 150 mm)
Mobile phase A: acetonitrile/water=10/90
Mobile phase B: acetonitrile/methanol=50/50
Eluent: Mobile phase A-mobile phase B (100/0 to 0/100, linear gradient, 50 minutes)
Amount of injection: 50 μL

The test system of a further data set is hamster adhesion model. Kind of data set: Investigation in hamster adhesion model. The data set is classed as in vivo. The note with it: 1 mL saline solution 10^−4 mol/L intraperitoneally; 4 weeks after operation; 5-grade score 0-4; control 2.0; p<0.05. As for the experimental part: Investigation in Hamster Adhesion Model
Five-week-old female hamster (10 hamsters per each group) was anesthetized by administering intraperitoneally pentobarbital sodium (50 mg/kg) and, after midline incision at abdominal region, the uterus was rubbed with a cotton swab. Thereafter, 1 mL of saline solution of a test compound (Compound 24: 10^−4 mol/L) was added dropwise intraperitoneally, and then the incised part was sutured. On the other hand, as a control, saline alone was added dropwise, followed by a similar treatment.
After 4 weeks from the operation, the animals were slaughtered, the abdominal part was exposed and adhesion was investigated. The adhesion was judged using the following 5-grade scoring system and the data were analyzed according to Mann-Whitney U test.
(§5) 1: Very weak adhesion (film-like adhesion easily releasable)
(§6) 2: Limited adhesion (strong adhesion difficult to release at only one point)
(§7) 3: Wide-range adhesion (strong adhesion difficult to release at several points)
(§8) 4: Very strong adhesion (very strong adhesion impossible to release)

In data set [2] the test system is rat monocrotaline-induced pulmonary hypertension model. Put plainly: Test in rat monocrotaline-induced pulmonary hypertension model. The data set is classed as in vivo. As for the experimental part: Test in Rat Monocrotaline-Induced Pulmonary Hypertension Model
Into 1.2 mL of 1 mol/L hydrochloric acid was dissolved 200 mg of monocrotaline, followed by addition of 5 mL of distilled water. The solution was neutralized with 0.5 mol/L sodium hydroxide, and further diluted with distilled water so as to be 10 mL (20 mg/mL). Moreover, a solution containing the solvent alone without monocrotaline was prepared as Solvent A. A test compound was suspended into olive oil (25 mg/mL). Furthermore, a solution containing no test compound but the solvent alone was prepared as Solvent B.
Monocrotaline (60 mg/kg-body weight) was administrated subcutaneously at the posterior region of neck of five 5-week-old SD male rats. From 3 days before monocrotaline administration to 20 days after the administration, a test compound was administered intraperitoneally twice a day at a dose of 50 mg/kg-body weight. On the next day of the final administration of the test compound, the rats were fixed supinely under anesthetization with intraperitoneal administration of sodium pentobarbital. And then blood pressure was measured with cannula inserted from left carotid artery and systolic pressure at right ventricle was measured with cannula inserted from right […] and introduced into right ventricle, via a pressure transducer by means of a pressure-strain gauge. After slaughter of the animals, the heart was removed and weight of right ventricle, weight of left ventricle and septum, and diameter and medial thickness of pulmonary artery having a diameter within a range of 50 to 150 μm were measured. Moreover, from these measured values, a weight ratio of right ventricle/(left ventricle+septum) and medial thickening ratio {(medial thickness/outer diameter of the blood vessel)×100} were determined. In this regard, a group wherein the rats to which monocrotaline was administered was treated with Solvent B alone in an amount of 2 mL/kg-body weight in the same administration schedule as above was named “Solvent-administered group”. In addition, a group wherein the rats to which Solvent A was administered in an amount of 3 mL/kg-body weight was treated with Solvent B in an amount of 2 mL/kg-body weight was named “Monocrotaline-untreated group”.

Data set [3] concerns canine eye postoperative adhesion model. Put plainly: Investigation in canine eye postoperative adhesion model. In kind it is in vivo, beagle dog. Particulars: sponge with saline solution 10^−4 mol/L for 3 minutes; 7 days after operation; 5-grade score 0-4; control 3.67; p<0.05. As to the method:
Investigation in Canine Eye Postoperative Adhesion Model
A beagle dog was anesthetized and each conjunctiva of both eyes thereof was peeled in a size of 10 mm×5 mm under a stereomicroscope. At that time, Tenon was left at conjunctival side and was not left at scleral side. After a sponge immersed in a saline solution of a test compound (Compound 70) was placed at the incised part for 3 minutes, the incised part was put in one stitch with 10-0 nylon thread. The concentration of the test compound solution was 10^−4 mol/L and a saline was used in a control group (6 dogs per each group).
After 7 days from the operation, the animals were slaughtered, the eyeballs were taken out and adhesion was investigated. After the thread used at the stitching in the model preparation was cut, evaluation was carried out by pulling the conjunctiva part with tweezers and scoring the adhesion state. The score values were determined according to the following 5-grade scores, and Mann-Whitney U test was used for analyzing the data.
as §5, §6, §7, §8

The mark [4] stands for this setting: chymase from heart of rhesus monkey, 120 minutes at 37° C., read-out: Simian chymase IC50 value.
The mark [5] stands for this setting: monocrotaline-treated SD male rats, 50 mg/kg intraperitoneally twice a day, 3 days before to 20 days after monocrotaline.

Protocol for Human chymase: (§9) That is, the activity was measured by reacting free His-Leu formed together with Ang II with o-phthalaldehyde (hereinafter, abbreviated as OPT) to prepare a fluorescent derivative and determining the amount quantitatively by means of a fluorophotometer.
(§10) First, 3.6 μmol of each test compound was weighed in a test tube and was dissolved into 3 mL of DMSO. The DMSO solution was diluted 1000-fold with 20 mmol/L Tris-hydrochloric acid buffer solution (pH 8.0) containing 0.01% Triton X-100 and 0.5 mol/L potassium chloride to prepare 1.2×10^−6 mol/L solution, which was successively diluted with the buffer solution to prepare test sample solutions having concentrations of 1.2×10^−6 mol/L to 1.2×10^−9 mol/L. To 500 μL of the test sample solution of each concentration or buffer solution was added 50 μL of an enzyme solution, followed by 10 minutes of pre-incubation at 37° C. Then, 50 μL of 0.1 mmol/L Ang I solution was added to initiate a reaction. Human angiotensin I (manufactured by SIGMA) was employed as Ang I. The enzyme solution to be used for the reaction was adjusted so as to hydrolyze about 60% of substrate under the conditions, and the reaction wherein a buffer solution containing no enzyme was carried out as a blind test. […] Thereafter, the reaction mixture was centrifuged at 4° C. at 3,000 rpm for 10 minutes and 2 mL of 2 mol/L sodium hydroxide and 1 mL of methanol were added to 1 mL of the resulting supernatant. […] The measurement was repeated twice for each sample and blind test. The fluorescence intensity obtained by subtracting the average value at blind test from the average value thereof was determined as chymase activity.
(§11) In this regard, an enzymatic reaction using a buffer solution instead of the test sample solution was carried out as a control, and inhibitory ratio of chymase activity was determined as percentage by dividing the difference of subtraction of the activity at the addition of the test compound from the chymase activity at the control by the chymase activity at the control.
Protocol for Simian chymase: as §9, §10, §11

In the case of `COC(=O)c1ccc(NS(=O)(=O)c2sc3ccc(Cl)cc3c2C)c(OC)c1` [Compound 7, Methyl 4-(5-chloro-3-methylbenzo[b]thiophene-2-sulfonylamino)-3-methoxybenzoate], the IC50 against Chymotrypsin and against Cathepsin G was greater than 1000 nM each time. Moreover, in [1], the “total percentage of scores 3 and 4 showing severe adhesions” value turned out to be 33.3%.

Compound `Cc1c(S(=O)(=O)Nc2ccc(-c3cnco3)cc2S(C)(=O)=O)sc2ccc(F)cc12` [Compound 48] gave a melting point of 199 to 201 °C. The concentration for half-maximal inhibition (IC50) on Simian chymase (setting [4]) is 6 nM. The compound further gave a half-inhibitory concentration (IC50) at Chymotrypsin greater than 10000 nM. Further, the IC50 against Cathepsin G is greater than 10000 nM. At Human chymase, this compound displayed an IC50 of 45 nM.

`Cc1c(S(=O)(=O)Nc2ccc(-c3nc(C(=O)O)co3)cc2S(C)(=O)=O)sc2ccc(F)cc12` [Compound 24, 2-[4-(5-fluoro-3-methylbenzo[b]thiophene-2-sulfonylamino)-3-methanesulfonylphenyl]oxazole-4-carboxylic acid] came in with a melting point of 207 to 208 °C. Further, the concentration for half-maximal inhibition (IC50) at Simian chymase (setting [4]) turned out to be 2 nM. In addition, the half-inhibitory concentration (IC50) on Chymotrypsin is greater than 10000 nM. The same compound showed an IC50 against Cathepsin G greater than 10000 nM. For the same compound, the “Residual ratio in rat plasma” value in “Stability in rat plasma” is given as 100%. Moreover, the average adhesion score in the data set on hamster adhesion model was found to be 0.9. Moreover, the “total percentage of scores 3 and 4 showing severe adhesions” value in [1] stood at 41.7%. Further, the 50% inhibitory concentration (IC50) against Human chymase was 37 nM.

With `COC(=O)c1ccc(NS(=O)(=O)c2sc3ccc(F)cc3c2C)c(S(C)(=O)=O)c1` [Compound 17, methyl 4-(5-fluoro-3-methylbenzo[b]thiophene-2-sulfonylamino)-3-methanesulfonylbenzoate], the concentration for half-maximal inhibition (IC50) was 9 nM against Simian chymase; greater than 10000 nM at Chymotrypsin; greater than 10000 nM at Cathepsin G; 56 nM at Human chymase (read-out: Human cymase IC50 value, human chymase from silkworms infected with baculovirus, 120 minutes at 37° C.). Further, the Medial thickening ratio in [2] ((medial thickness/outer diameter of the blood vessel)×100, pulmonary artery 50 to 150 μm, 50 mg/kg intraperitoneally twice a day) came out at 10.55 ± 1.80. Also, in data set [2] (monocrotaline-induced pulmonary hypertension, result in words), the “thickening of medial muscular layer (increase of medial thickening ratio)” value was “suppressed”. For the same compound, in data set [2] (monocrotaline-treated SD male rats, 50 mg/kg intraperitoneally twice a day), the “Weight ratio of right ventricle/(left ventricle + septum)” value amounted to 0.39 ± 0.04. In data set [2] (setting [5]), this compound showed an Average blood pressure of 111 ± 19 mmHg. The “Systolic pressure at right ventricle” value in [2] (setting [5]) is 57 ± 11. Also, the “Weight of right ventricle” value in data set [2] (setting [5]) is 233 ± 24 mg.

Take `Cc1c(S(=O)(=O)Nc2ccc(-c3nc(C(=O)O)cs3)cc2S(C)(=O)=O)sc2ccc(F)cc12` [Compound 70, 2-[4-(5-fluoro-3-methylbenzo[b]thiophene-2-sulfonylamino)-3-methanesulfonylphenyl]thiazole-4-carboxylic Acid]: the IC50 was 0.4 nM on Simian chymase (setting [4]), greater than 10000 nM on Chymotrypsin, greater than 10000 nM against Cathepsin G and 7 nM on Human chymase. The same compound had an average adhesion score in [3] of 2.67.
